How the values were obtained:
[1] = test system: F-9 murine embryonal carcinoma cells; assay: In vivo suppression of F-9 embryonal carcinoma, I.P. tumor and I.P. treatment; set-up: species or system Balb/c mice; effective dose (range): unit not given here; conditions: for survival (average): free drug at optimal doses, one day after tumor
Protocol: In vivo experiments were performed with F-9 murine embryonal carcinoma cells which were maintained in-vitro in DMEM supplemented with 10% fetal calf serum, glutamine and antibiotics, in gelatine (0.1%) coated culture flasks. In-vivo experiments were performed in female Balb/c mice at the age of 2-3 months.
In experiment I, 300,000 tumor cells were inoculated intraperitoneally (I.P.) into Balb/c mice.
The in vivo chemotherapeutic effect of the different complexes in comparison with free drugs was evaluated by the suppression of F9 embryonal carcinoma in Balb/c mice. […]

[2] = Toxicity in tumor-free mice, single I.V. injection; type: in vivo; conditions: free drugs, ICR mice
Protocol: Preliminary toxicity experiments with CM-dex and ?ex-NH2 complexes were performed to compare the toxicity of the free drugs and the complexes in tumor-free ICR mice. Pairs of mice were given a single I.V. injection of each of the drugs or drug complexes at a wide concentration range. Death of mice due to toxicity occurred between 1 to 7 days after injection. The results (Table 8) indicate the maximal non-toxic (none of the mice died) and the minimal toxic dose (death of both mice). […] The CM-dex T-40 of both drugs were also toxic although somewhat less than the free drugs, with no significant difference between the cis-Pt and cis-aq complexes. […] The dex-NH2 were also considerably less toxic than the free drugs.

38C-13 tumor cells = assay: Inhibition of DNA synthesis ([3H]-methylthymidine incorporation); type: cell-based, murine; conditions: Fig. 2
Protocol: Inhibition of DNA synthesis by the free platinum compounds of their complexes was determined as follows. Tumor cells (2-5 x 10^4/0.1 ml) suspended in their suitable grwoth media were dispersed into wells of microtiter plates. The Platinum compounds or complexes were added to the cells in […] aliquots. The plates were incubated for 21 hr at 37 °C in a humidified atmosphere of 5% CO2 in air. At that time 10 µl containing 0.5 µci of [^3H]-methylthymidine were added to each well and the plates were incubated for 3 hr as above. The reaction was terminated using a Titerteck cell harvester.
Pt complexes used in the in vitro and in vivo experiments were prepared under conditions of maximal binding, that is, 98-100% binding of the free drugs. In vivo experiments were performed with cis-Pt and cis-aq complexes. […] Cis-Pt and cis-aq complexes of dex-NH2 were tested and found to be active in vitro against 5 murine tumors (EL-4, 38-C13, L1210, RDM and F-9) and 2 human derived tumors (Hela and Osteosarcoma). […] This activity was lost, however upon exhaustive dialysis.

tumors = assay: Activity against tumors in vivo (general statement); conditions: uncomplexed salt
[3] = Exp. I: 300,000 tumor cells I.P., 50 µg, out of 5 TBM
[4] = Exp. II: 600,000 cells I.P., treatment 2 days after tumor, 60 µg

SMILES | died of drug toxicity [1, 3] | died of the tumor [1, 3] | survived [1, 3] | non-protective against the tumor [1, 4] | toxic [1, 4] | effective dose (range) ([1]; F9 tumor, single dose, Table 5) | survival (average) ([1]; F9 tumor, Table 7) | toxicity at a slightly higher than optimal dose ([1]; F9 tumor, free drug, Table 7) | toxicity compared with cis-Pt [2] | fold less inhibitory than cis-Pt and cis-aq (38C-13 tumor cells) | IC50 (38C-13 tumor cells; read-out: 50% inhibition of DNA synthesis, 21 hr at 37°C with drug, then 3 hr [3H]-methylthymidine pulse) | activity against tumors in vivo (tumors) | died of the tumor ([1]; Exp. I: 300,000 tumor cells I.P., 100 ug I.P. 1 day after tumor inoculation) | time of death of the tumor after receiving the tumor cells ([1]; Exp. I: 300,000 tumor cells I.P., 100 ug I.P. day 1, the 1/5 mouse that died of tumor) | protective against the tumor [1, 4]
N.N.O.O.O=[N+]([O-])[O-].O=[N+]([O-])[O-].[Pt+2] [cis-aq, diaquodiammine Platinum (II)-nitrate] | 1 | 3 | 1 | 2/5 | 3/5 | 40 | 60-80% | at least partially toxic | more toxic than cis-Pt | – | – | – | – | – | –
[Cl][Pt-2]([Cl])([Cl])[Cl].[K+].[K+] [K2PtCl4] | – | – | – | – | – | – | – | – | – | 20 fold | 20 µM | essentially inactive | – | – | –
N.N.[Cl][Pt][Cl] [cis-Pt, Cis-dichlorodiammine Platinum (II)] | – | – | – | – | – | – | 60-80% | – | – | – | – | – | 1/5 | 54 days | 4/5

Source: EP0190464A2, “Novel anti-cancer drugs” (YEDA RESEARCH AND DEVELOPMENT COMPANY LIMITED, priority 1984, dated 1986)
